From patent US7671074B2, “Sulfonylguanidine compounds and pharmaceutical uses thereof” (Gruenenthal GmbH, priority 2000, dated 2010)
Like-named read-outs stand apart in the source and are kept apart here.

Experiments:
[1] = biological target: gabapentin binding site; test: Binding assay: displacement of gabapentin from its binding site; conditions: for IC50: displacement of gabapentin from its binding site; for Percent inhibition: inhibition/displacement of gabapentin, concentration 10^−5 μM [sic]
Experimental: Gabapentin was used in a binding assay in order to check the binding and affinities of the selected compounds. The affinity of the compounds according to the invention was measured via the displacement of gabapentin from its binding site.

[2] = system: male albino mice (NMRI), formalin-induced nociception; test: Formalin test on mice (second phase); type: in vivo, mouse; conditions: Mus musculus, iv, formalin test, i.v., read-out: ED50 value
Experimental: The investigations to determine the antinociceptive action of the compounds according to the invention were carried out by the formalin test on male albino mice (NMRI, 25-35 g, Iffa Credo, Belgium).
In the formalin test the first (early) phase (0-15 minutes after the formalin injection) and the second (late) phase (15-60 minutes after the formalin injection) differ (D. Dubuisson et al., Pain, Vol. 4, pp. 161-174 (1977)). The early phase, being a direct reaction to the formalin injection, constitutes a model for acute pain, whereas the late phase is regarded as a model for persistent (chronic) pain (T. J. Coderre et al., Pain, Vol. 52, pp. 259-285 (1993)).
The compounds according to the invention were investigated in the second phase of the formalin test in order to obtain information on the effects of substances in chronic/inflammatory pain. By means of a single subcutaneous formalin injection (20 μl, 1% aqueous solution) into the dorsal side of the right-hand rear paw, a nociceptive reaction was induced in unconstrained experimental animals, manifested in a noticeable licking and biting of the affected paw.
The nociceptive behavior for the test period in the second (late) phase of the formalin test was continuously monitored by observing the animals. The pain reaction was quantified by totaling the time in seconds during which the animals continued to lick and bite the affected paw during the investigation period. After injecting substances that have an antinociceptive effect in the formalin test, the aforedescribed behavior pattern of the animals is reduced or possibly even cancelled.
Corresponding to the substance tests, in which the animals had been injected with the test substance before formalin, the control animals were injected with a vehicle, i.e. solvent (e.g. 0.9% NaCl solution) before the formalin injection. […]
Based on the quantification of the pain reaction, the effect of the substance in the formalin test was determined as the change in the control in percentage terms. […]

[3] = system: male Sprague-Dawley rats with L5/L6 spinal nerve ligatures; test: In vivo experiments according to Chung (spinal nerve ligation, tactile withdrawal threshold); parameters: species or system rat; conditions: for ED50: Rattus norvegicus
Experimental: In male Sprague-Dawley rats spinal nerve ligatures were applied according to Kim and Chung (1992) to the left L5/L6 spinal nerves. At the same time spinal catheters were implanted according to Pogatzki et al. ^6 (2000). 4 to 6 days after the operation the tactile threshold baseline (withdrawal thresholds) was measured on the ipsilateral and contra lateral rear paw by an electronic vonFrey anaesthesiometer (IITC Life Science, USA). […] After the test and baseline measurement, gabapentin and substances according to the invention were administered. The tactile withdrawal thresholds were measured 30 minutes after administration. The results are expressed as ED50 and % maximal possible effect (% MPE; % of the maximal possible effect) on the ipsilateral side, in which the baseline is taken as 0% and the withdrawal threshold of a control group is taken as 100% MPE.

SMILES | IC50 [1] | Percent inhibition [1] | further results
Cc1cc(C)c(S(=O)(=O)/N=C(\N)NCc2ccccn2)c(C)c1 [Example 41, N-{amino[(pyridin-2-yl-methyl)-amino]-methylene}-2,4,6-trimethylbenzenesulfonamide] | 438 nM |  | 
CC(C)c1ccc(S(=O)(=O)/N=C(/N)NCc2ccco2)cc1 [Example 54, N-{amino[(furan-2-yl-methyl)-amino]-methylene}-4-isopropylbenzenesulfonamide] | 3510 nM |  | 
COc1ccc(S(=O)(=O)/N=C(\N)NCc2ccccn2)cc1 [Example 43, N-{amino[(pyridin-2-yl-methyl)-amino]-methylene}-4-methoxybenzenesulfonamide] | 634 nM |  | 
CC(=O)Nc1ccc(S(=O)(=O)/N=C(\N)NCc2ccccn2)cc1.Cl [Example 39, N-[4-({amino-[(pyridin-2-yl-methyl)-amino]-methylene}-sulfamoyl)-phenyl]-acetamide] |  | 27% | 
Cl.N/C(=N\S(=O)(=O)c1ccccc1)NCc1ccccn1 [Example 36, N-{amino[(pyridin-2-yl-methyl)-amino]-methylene}-benzenesulfonamide] |  | 17% | 
N/C(=N\S(=O)(=O)c1cccs1)NCc1ccccn1 [Example 46, Thiophene-2-sulfonic acid amino-[(pyridin-2-yl-methyl)-amino]-methylene amide] |  | 36% | 
N/C(=N\S(=O)(=O)c1ccc(Cl)c(Cl)c1)NCc1ccccn1 [Example 33, N-{amino[(pyridin-2-yl-methyl)-amino]-methylene}-3,4-dichlorobenzenesulfonamide] | 1100 nM |  | 
Cl.N/C(=N/S(=O)(=O)c1ccc(Cl)cc1)NCc1cccs1 [Example 61, N-{amino[(thiophen-2-yl-methyl)-amino]-methylene}-4-chlorobenzenesulfonamide] |  | 24% | 
CCCc1ccc(S(=O)(=O)/N=C(\N)NCc2ccccn2)cc1 [Example 42, N-{amino[(pyridin-2-yl-methyl)-amino]-methylene}-4-propylbenzenesulfonamide] | 27 nM |  | 
N/C(=N\S(=O)(=O)c1cccc2cccnc12)NCc1ccccn1 [Example 47, Quinoline-8-sulfonic acid amino-[(pyridin-2-yl-methyl)-amino]-methylene amide] | 2800 nM |  | 
CCCCc1ccc(S(=O)(=O)/N=C(\N)NCc2ccccn2)cc1 [Example 50, N-{amino[(pyridin-2-yl-methyl)-amino]-methylene}-4-butylbenzenesulfonamide] | 170 nM |  | 
N/C(=N\S(=O)(=O)c1ccc(I)cc1)NCc1ccccn1 [Example 35, N-{amino[(pyridin-2-yl-methyl)-amino]-methylene}-4-iodobenzenesulfonamide] | 50 nM |  | 
CC(C)(C)c1ccc(S(=O)(=O)/N=C(/N)NCc2ncccn2)cc1.Cl [Example 51] |  | 5% | 
Cc1ccc(S(=O)(=O)/N=C(\N)NCc2ccccc2)cc1 [Example 2, N-[amino-(benzylaminomethylene)]-4-methylbenzene-sulfonamide] |  | 69.7% | 
N/C(=N\S(=O)(=O)c1ccc(Br)cc1)NCc1ccccn1 [Example 32, N-{amino[(pyridin-2-yl-methyl)-amino]-methylene}-4-bromobenzenesulfonamide] | 218 nM |  | 
Cl.N/C(=N/S(=O)(=O)c1ccc(Cl)cc1)NCc1ccco1 [Example 63, N-{amino[(furan-2-yl-methyl)-amino]-methylene}-4-chlorobenzenesulfonamide] |  | 23.5% | 
Cl.N/C(=N\S(=O)(=O)c1ccc(F)cc1)NCc1ccccn1 [Example 40, N-{amino[(pyridin-2-yl-methyl)-amino]-methylene}-4-fluorobenzenesulfonamide] |  | 21% | 

SMILES | IC50 [1] | Percent inhibition [1] | further results
NCC1(CC(=O)O)CCCCC1 [gabapentin, reference compound] |  |  | ED50 [2]: 79 mg/kg; ED50 ([3]; 0.5 h): 92.6 mg/kg
Cc1c(S(=O)(=O)/N=C(\N)NCc2ccccn2)sc2ccc(Cl)cc12 [Example 48, 5-chloro-3-methylbenzo[b]thiophene-2-sulfonic acid amino-[(pyridin-2-yl-methyl)-amino]-methylene amide] | 136 nM |  | 
Cc1cccc(S(=O)(=O)/N=C(\N)NCc2ccccn2)c1 [Example 45, N-{amino[(pyridin-2-yl-methyl)-amino]-methylene}-3-methylbenzenesulfonamide] |  | 35% | 
CC(C)(C)c1ccc(S(=O)(=O)/N=C(/N)NCc2ccccn2)cc1 [Example 49, N-{amino[(pyridin-2-yl-methyl)-amino]-methylene}-4-tert.-butylbenzenesulfonamide] | 90 nM |  | 
CCCc1ccc(S(=O)(=O)/N=C(/N)NCc2cccs2)cc1 [Example 58, N-{amino[(thiophen-2-yl-methyl)-amino]-methylene}-4-propylbenzenesulfonamide] | 1820 nM |  | 
CC(C)(C)c1ccc(S(=O)(=O)/N=C(/N)NCc2ccco2)cc1.Cl [Example 56, N-{amino[(furan-2-yl-methyl)-amino]-methylene}-4-tert.-butylbenzenesulfonamide] |  | 49% | 
Cc1ccc(S(=O)(=O)/N=C(/N)NCc2cccs2)cc1.Cl [Example 62, N-{amino[(thiophen-2-yl-methyl)-amino]-methylene}-4-methylbenzenesulfonamide] |  | 29% | 
N/C(=N\S(=O)(=O)c1cccc2ccccc12)NCc1ccccn1 [Example 44, Naphthalene-1-sulfonic acid amino-[(pyridin-2-yl-methyl)-amino]-methylene amide] | 5300 nM |  | 
CC(C)c1ccc(S(=O)(=O)/N=C(/N)NCc2cccs2)cc1 [Example 59, N-{amino[(thiophen-2-yl-methyl)-amino]-methylene}-4-isopropylbenzenesulfonamide] | 970 nM |  | 
CCCc1ccc(S(=O)(=O)/N=C(/N)NCc2ccco2)cc1 [Example 55, N-{amino[(furan-2-yl-methyl)-amino]-methylene}-4-propylbenzenesulfonamide] | 3200 nM |  | 
CCCCc1ccc(S(=O)(=O)/N=C(/N)NCc2ccco2)cc1.Cl [Example 52, N-{amino[(furan-2-yl-methyl)-amino]-methylene}-4-butylbenzenesulfonamide] |  | 47% | 
N/C(=N\S(=O)(=O)c1ccc2ccccc2c1)NCc1ccccn1 [Example 37, Naphthalene-2-sulfonic acid amino-[(pyridin-2-yl-methyl)-amino]-methylene amide] | 122 nM |  | 
CCCCc1ccc(S(=O)(=O)/N=C(/N)NCc2cccs2)cc1.Cl [Example 57, N-{amino[(thiophen-2-yl-methyl)-amino]-methylene}-4-butylbenzenesulfonamide] |  | 41% | 
Cc1ccc(S(=O)(=O)/N=C(/N)NCc2ccco2)cc1.Cl [Example 53, N-{amino[(furan-2-yl-methyl)-amino]-methylene}-4-methylbenzenesulfonamide] |  | 26% | 
CC(C)(C)c1ccc(S(=O)(=O)/N=C(/N)NCc2cccs2)cc1 [Example 60, N-{amino[(thiophen-2-yl-methyl)-amino]-methylene}-4-tert.-butylbenzenesulfonamide] | 5690 nM |  | 
CC(C)c1ccc(S(=O)(=O)/N=C(\N)NCc2ccccn2)cc1 [Example 34, N-{amino[(pyridin-2-yl-methyl)-amino]-methylene}-4-isopropylbenzenesulfonamide] | 33 nM |  | 
Cc1ccc(S(=O)(=O)/N=C(\N)NCc2ccccn2)cc1 [Example 1] | 421 nM | 82% | ED50 ([3]; 0.5 h, rats, Chung model, tactile withdrawal thresholds 30 minutes after administration, ipsilateral side, read-out: ED50): ~25 mg/kg; ED50 ([3]; read-out:, table title: Analgesia testing in rats according to Chung, further investigation): 10 to 20 mg/kg; superiority to gabapentin (factor) ([3]; rats, Chung model, ED50 compared with gabapentin): 4; effect compared with gabapentin ([3]; rats, Chung test, further investigation, result in words): superior in their effect to gabapentin; effect in the Chung test ([3]; rats, further investigation, result in words): show an effect
